Each structure is given as a SMILES string. Bounds are passed on as bounds.

Data set [1] has as its system S. aureus 272123. Kind of data set: Efflux pump inhibition assay (real-time ethidium bromide accumulation). It is filed as cell-based, Staphylococcus aureus. To be noted: compound 50 µM, EB 1 µg/mL, minute 60. How it is done:
Compounds 1–20 were assessed for their capability of modulating ethidium bromide (EB) accumulation on two resistant strains. […] However, norA is a core gene of the S. aureus as a species, which means that the NorA pump occurs in all S. aureus strains.
(§1) Salmonella enterica serovar Typhimurium SE03, was used as a Gram-negative bacterium. This strain has a deletion of the acrA gene, which was predicted with the least affinity for the compounds. The aim of these studies was to perform a first screening of these compounds and their ability to modulate the efflux of EB. […] The relative fluorescence index (RFI) was calculated based on the means of relative fluorescence units, depicted in Table 2.
(§2) Compounds 1–20 were evaluated for their ability to inhibit efflux pumps in SE03 and S. aureus 272123 strains, through the real-time fluorimetry, monitoring the intracellular accumulation of EB, an efflux pump substrate. This was determined by the automated method using a CLARIOstar Plus plate reader (BMG Labtech, Ortenberg, Germany). Reserpine and CCCP were applied at 25 µM as positive controls, and the solvent DMSO was applied at 1% v/v. The bacterial strains were incubated in an appropriate culture media (TSB—S. aureus 272123; LB-B—SE03) at 37 °C until they reached an optical density (OD) between 0.4 and 0.6 at λ = 600 nm. The culture was centrifuged at 13,000× g for 3 min, and the pellet washed and resuspended with PBS. The suspension was centrifuged again in the same conditions and resuspended in PBS. The compounds were applied at 50 µM in a solution of a non-toxic concentration of EB (1 µg/mL) in PBS. Then, 50 µL of this solution were transferred into a 96-well black microtiter plate (Greiner Bio-One Hungary Kft, Mosonmagyaróvár, Fertősor, Hungary), and 50 µL of bacterial suspension (OD600 0.4–0.6) were added to each well. The plates were placed into the CLARIOstar plate reader, and the fluorescence was monitored at excitation and emission wavelengths of 530 nm and 600 nm every minute for one hour on a real-time basis. From the real-time data, the activity of the compounds, namely the RFI of the last time point (minute 60) of the EB accumulation assay, was calculated according to the following formula:(1) RFI=RFtreated−RFuntreated/RFuntreated where RFtreated is the relative fluorescence (RF) at the last time point of EB accumulation curve in the presence of the compound, and RFuntreated is the RF at the last time point of the EB accumulation curve of the untreated control, having only the solvent (DMSO) control. The accumulation curves were designed using Microsoft Excel®.

Data set [2] deals with SE03 (acrA gene-inactivated Salmonella enterica serovar Typhimurium SL1344). The data set is described as above. It is filed as cell-based. The note with it: compound 50 µM, EB 1 µg/mL, minute 60. As to the method: as §1, §2
The next data set deals with S. aureus ATCC 29213. Kind of data set: Inhibition of biofilm formation (crystal violet). It is filed as cell-based, Staphylococcus aureus. To be noted: half the MIC, or 100 µM if MIC >100 µM, 48 h, 30 °C.
The test system of data set [3] is S. aureus 272123. Kind of data set: Inhibition of biofilm formation (crystal violet). The format is cell-based, Staphylococcus aureus. To be noted: half the MIC, or 100 µM if MIC >100 µM, 48 h, 30 °C. How it is done: The biofilm inhibition, presented in percentages (%), was calculated based on the mean of absorbance units.
The bacterial strains used were the Gram-positive S. aureus ATCC 25923 and S. aureus 272123. The detection of the biofilm formation was possible with the use of the dye crystal violet (CV; 0.1% v/v). The initial inoculum was incubated in TSB overnight, and then diluted to an OD600 of 0.1. Then, the bacterial suspension was added to 96-well microtiter plates and the compounds were added at half the MIC. […] The final volume in each well was 200 µL. […] The plates were incubated at 30 °C for 48 h, with gentle stirring (100 rpm). After this incubation period, the TSB medium was discarded, and the plates were washed with tap water to remove unattached cells. Afterwards, 200 µL of a 0.1% v/v CV solution were added to the wells and incubated for 15 min at room temperature. Then, the CV solution was removed from the wells, and the plates were washed again with tap water, and 200 µL of a 70% ethanolic solution were added to the wells. The biofilm formation was determined by measuring the OD600 using a Multiscan EX ELISA plate reader (Thermo Labsystems, Cheshire, WA, USA). The anti-biofilm effect of the compounds was expressed as the percentage (%) of decrease in biofilm formation.

Data set [4] concerns Chromobacterium violaceum wild type 85 (wt85). In words: Quorum sensing inhibition assay (disk, pigment production). The format is cell-based. To be noted: read-out: Quorum Sensing Inhibition (mm) ± SD. An excerpt:
(§3) The sensor strain Chromobacterium violaceum CV026 and the acyl-homoserine lactones (AHLs) producer strain Sphingomonas paucimobilis Ezf 10-17 (EZF) were inoculated as parallel lines, and the AHL producers, Chromobacterium violaceum wild type 85 (wt85) and Serratia marcescens AS-1 were inoculated as a single line.
(§4) For the QS tests, all the bacteria used were Gram-negative. The bacteria used were Chromobacterium violaceum wild type 85 (wt85), characterized by the AHL signal molecule-mediated production of the purple violacein pigment, capable of endogenous QS-signal molecule production (N-hexanoyl-L-HSL), C. violaceum CV026 (CV026), a Tn5 transposase-mutant, AHL-signal molecule indicator strain (produces purple violacein pigment in the presence of AHL), which is incapable of endogenous QS-signal molecule-production, but useful in the detection of external stimuli, Sphingomonas paucimobilis Ezf 10-17 (EZF), AHL-producing-strain (used with C. violaceum CV026), and Serratia marcescens AS-1, characterized by the AHL signal molecule-mediated production of the orange–red pigment prodigiosin (2-methyl-3-pentyl-6-methoxyprodigiosin), capable of endogenous QS-signal molecule production (N-hexanoyl-L-HSL), were applied.
(§5) The QS inhibitory effect of the compounds was examined on the EZF and the sensor CV026 strains, on the wt85 strain, and on S. marcescens, for 4, 5, 11, 12, 16, 19, and 20. The method used was the parallel inoculation method, where pair combinations of the used sensor strain CV026 and the N-acyl-homoserine lactone (AHL)-producing strain EZF were inoculated directly onto the LB*-A agar surface in parallel, at an approximate distance of 5 mm from each other. S. marcescens AS-1 and wt85 were inoculated as a single line. Filter paper disks (7 mm in diameter) were placed on the center of the inoculated line(s) and impregnated with 8 µL of a solution of 10 mM of the compounds. […] The agar plates were incubated at room temperature (20 °C) for 24–48 h. The QS inhibition was accessed visually, through the inhibition of pigment production. The discolored, but intact, bacterial colonies were measured with a ruler.

The next data set deals with Serratia marcescens AS-1. The data set is described as above. It is filed as cell-based. To be noted: AS1, read-out: Quorum Sensing Inhibition (mm) ± SD.
Description: as §3, §4, §5

Data set [5] has as its system EZF + CV026 (Sphingomonas paucimobilis Ezf 10-17 + Chromobacterium violaceum CV026). In words: Quorum sensing inhibition assay (parallel inoculation, pigment production). It is filed as cell-based. To be noted: read-out: Quorum Sensing Inhibition (mm) ± SD.
Description: as §3, §4, §5

A further data set is described as follows: Cytotoxicity assay (MTT). It is filed as cell-based, mouse. To be noted: mouse, NIH/3T3 mouse fibroblast cells, 24 h, MTT, read-out: Cytotoxicity IC50 (µM) ± SD. How it is done:
In order to apply efflux pump inhibitors to treat patients, several issues should be addressed.
Mouse fibroblasts (NIH/3T3, ATCC CRL-1658TM) were cultivated in DMEM (Gibco 52100-039) and supplemented with 10% heat-inactivated fetal bovine serum (Biowest, VWR International Kft, Debrecen, Hungary), 2 mM of L-glutamine, 1 mM Na pyruvate, 100 U/L and 10 mg/L penicillin/streptomycin mixture (Sigma-Aldrich Chemie GmbH, Steinheim, Germany), respectively, and 0.1% nystatin (8.3 g/L in ethylene glycol). The adherent cells were detached using a combination of 0.25% Trypsin–Versene (EDTA) solution for 5 min at 37 °C. Before each cytotoxicity assay using this cell line, cells were seeded in untreated 96-well flat-bottom microtiter plates, following a 4-h incubation period in a humidified atmosphere (5% CO2, 95% air) at 37 °C [60].
The cytotoxicity of 4, 12, 16, 19, and 20 was assessed in NIH/3T3 cells. The compounds were added to the cells distributed into 96-well flat bottom microtiter plates at concentrations of […] and initially incubated for 24 h, after which a solution of MTT in PBS was added to each well and incubated for another 4 h. The concentrations used were the same as in the MIC assay. After this, 100 μL of SDS (10% in a 0.01 M HCl solution) were added to each well and incubated overnight at 37 °C. Doxorubicin was used as the positive control. Cell growth was determined in quadruplicate by measuring OD at λ = 540 nm (reference 630 nm) in a Multiscan EX ELISA reader (Thermo Labsystems, Cheshire, WA, USA). The percentage of inhibition of cell growth was determined according to the equation: (2) 100−(ODsample−ODmedium control/ODcell control−ODmedium control)×100

On to `O=c1c2ccccc2oc2ccc(O)c(O)c12` [Compound 3], for which the entries for the “RFI ± SD (relative fluorescence index)” value (in the data set with S. aureus 272123 [1]; in data set [2]) were −0.05 ± 0.06 ^3 and 0.23 ± 0.04 ^8, respectively.
For `COc1cc(C=O)c2c(=O)c3ccccc3oc2c1O` [Compound 14], the “RFI ± SD (relative fluorescence index)” value in the data set on S. aureus 272123 [1] is recorded as −0.28 ± 0.06 ^2; in data set [2], 0.02 ± 0.02 ^7.
In the same order, the values of `COC(=O)c1cc(OC)c(OC)c2oc3cc(OC)ccc3c(=O)c12` [Compound 17] are −0.34 ± 0.02 ^5 and −0.29 ± 0.08 ^10.
As to `COc1cc(CNCc2ccc(Cl)cc2)c2c(=O)c3ccccc3oc2c1OC` [Compound 18], the “RFI ± SD (relative fluorescence index)” value in the data set with S. aureus 272123 [1] was −0.01 ± 0.04 ^3; in data set [2], 0.04 ± 0.04 ^8.
Regarding `COc1cccc2oc3ccccc3c(=O)c12` [Compound 11], the “Inhibition of Biofilm Formation (%) ± SD” value is 0 ^1% in the data set with S. aureus ATCC 29213 and 39.95 ± 7.66 ^3% with S. aureus 272123 [3]. The zone of inhibition at 10000 µM (in data set [4]; in the data set on Serratia marcescens AS-1; in data set [5]) was 0 mm each time.
Regarding `Cc1cc(O)c(O)c2oc3ccccc3c(=O)c12` [Compound 6], the “RFI ± SD (relative fluorescence index)” value in the data set on S. aureus 272123 [1] is −0.91 ± 0.01 ^4; in data set [2] it was −0.91 ± 0.01 ^9.
In the same order, the values of `COc1cc(C)c2c(=O)c3ccccc3oc2c1OC` [Compound 8] are 0.15 ± 0.25 ^4 and 0.05 ± 0.11 ^9.
Consider `COc1cc(CNCc2ccc(F)cc2)c2c(=O)c3ccccc3oc2c1OC` [Compound 19], for which the results for the “RFI ± SD (relative fluorescence index)” value (with S. aureus 272123 [1]; in data set [2]) were 0.02 ± 0.02 ^3 and 2.86 ± 0.14 ^8, respectively. The “Inhibition of Biofilm Formation (%) ± SD” value with S. aureus 272123 [3] is 65.03 ± 9.86 ^4%. In addition, the zone of inhibition at 10000 µM (in data set [4]; in the data set on Serratia marcescens AS-1; in data set [5]) was 0 mm in each case. Further, in the data set “Cytotoxicity assay (MTT)”, the concentration for half-maximal inhibition (IC50) at 24 h was more than 100 µM.
With `COc1cc(C=O)c2c(=O)c3ccccc3oc2c1OC` [Compound 15], the “RFI ± SD (relative fluorescence index)” value with S. aureus 272123 [1] is recorded as 0.08 ± 0.07 ^4; in data set [2], 0.13 ± 0.09 ^9.
For the compound `COc1ccc2c(=O)c3c(CBr)cc(OC)c(OC)c3oc2c1` [Compound 13], the “RFI ± SD (relative fluorescence index)” value is listed as 0.53 ± 0.20 ^5 with S. aureus 272123 [1] and 1.16 ± 0.64 ^10 in data set [2].
Take `COc1ccc2c(=O)c3c(C)cc(OC)c(OC)c3oc2c1` [Compound 10]: the “RFI ± SD (relative fluorescence index)” value in the data set on S. aureus 272123 [1] is 0.18 ± 0.20 ^5; in data set [2], 0.24 ± 0.05 ^10.
As for `CC(CN1c2ccccc2Sc2ccccc21)N(C)C` (centres unmarked) [PMZ, promethazine, reference compound], the zone of inhibition at 10000 µM in data set [4] was found to be 41 ± 0.5 mm; in the data set on Serratia marcescens AS-1, 18 ± 0.8 mm; in data set [5] it was 40 ± 0.1 mm.
On to `COc1c(Cl)c(C)c2c(=O)c3ccccc3oc2c1OC` [Compound 9], for which the entries for the “RFI ± SD (relative fluorescence index)” value (in the data set with S. aureus 272123 [1]; in data set [2]) were −0.04 ± 0.26 ^4 and 0.05 ± 0.09 ^9, respectively.
Regarding `COc1cc(CN[C@H](C)c2ccc(Cl)cc2)c2c(=O)c3ccccc3oc2c1OC` [Compound 20], the “RFI ± SD (relative fluorescence index)” value is listed as 1.08 ± 0.82 ^4 with S. aureus 272123 [1] and 2.09 ± 0.05 ^11 in data set [2]. In the data set with S. aureus 272123 [3], the “Inhibition of Biofilm Formation (%) ± SD” value was 77.17 ± 4.45 ^4%. Moreover, the zone of inhibition at 10000 µM (in data set [4]; with Serratia marcescens AS-1; in data set [5]) was 0 mm throughout. Further, in the data set “Cytotoxicity assay (MTT)”, the half-maximal inhibitory concentration (IC50) at 24 h amounted to 35.1 ± 4.86 µM.
`Cc1cc(O)c(O)c2oc3cc(O)ccc3c(=O)c12` [Compound 7]: the “RFI ± SD (relative fluorescence index)” value with S. aureus 272123 [1] is on record as −0.92 ± 0.00 ^5; in data set [2], −0.87 ± 0.02 ^10.
In the case of `O=c1c2ccccc2oc2c(O)cccc12` [Compound 1], the results for the “RFI ± SD (relative fluorescence index)” value (in the data set on S. aureus 272123 [1]; in data set [2]) were −0.36 ± 0.03 ^1 and −0.01 ± 0.05 ^6, respectively.
Turning to `COc1cccc2c1C(=O)c1c(O)c3c(c(O)c1C2=O)C[C@@](O)(C(=O)CO)C[C@@H]3O[C@H]1C[C@H](N)[C@H](O)[C@H](C)O1` [Doxorubicin, reference compound], the IC50 at 24 h in the data set “Cytotoxicity assay (MTT)” worked out at 12.1 ± 0.81 µM.
